Experimental data: patent US6534524B1, “Indazole compounds and pharmaceutical compositions for inhibiting protein kinases, and methods for their use” (Agouron Pharmaceuticals, Inc., priority 1999, dated 2003)
Read-outs that look alike come from different tables or passages of the source.

Experiments:
[1] = target: phosphorylated VEGF-R2Δ50 (FLVK-P) (Homo sapiens, UniProt P35968, DEL940-989/E990V); assay: VEGF-R2 coupled spectrophotometric assay, phosphorylated VEGF-R2Δ50 (FLVK-P)
[2] = target: T1, LCK tyrosine kinase (Homo sapiens, UniProt P06239, C224D/P223M); assay: LCK spectrophotometric assay; type: biochemical; conditions: Table 1
T1 construct: starting from amino acid residue 223 to the end of the protein at residue 509; made in house; host or cells: insect cells
T1 sequence (P06239 223-509 P223M/C224D): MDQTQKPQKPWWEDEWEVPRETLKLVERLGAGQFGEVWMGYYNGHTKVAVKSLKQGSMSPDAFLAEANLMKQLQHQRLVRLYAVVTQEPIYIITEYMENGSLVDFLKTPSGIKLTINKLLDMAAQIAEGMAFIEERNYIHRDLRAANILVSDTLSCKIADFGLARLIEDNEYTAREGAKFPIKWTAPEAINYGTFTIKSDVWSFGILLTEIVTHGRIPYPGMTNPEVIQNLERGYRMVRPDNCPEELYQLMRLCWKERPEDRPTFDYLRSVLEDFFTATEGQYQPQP

[3] = target: CDK4/Cyclin D3 complex (Homo sapiens, UniProt P11802); assay: CDK4/Cyclin D assay ([32P]ATP, Rb fragment)
CDK4/Cyclin D3 complex, sequence (P11802 whole entry, the tested form may be a part): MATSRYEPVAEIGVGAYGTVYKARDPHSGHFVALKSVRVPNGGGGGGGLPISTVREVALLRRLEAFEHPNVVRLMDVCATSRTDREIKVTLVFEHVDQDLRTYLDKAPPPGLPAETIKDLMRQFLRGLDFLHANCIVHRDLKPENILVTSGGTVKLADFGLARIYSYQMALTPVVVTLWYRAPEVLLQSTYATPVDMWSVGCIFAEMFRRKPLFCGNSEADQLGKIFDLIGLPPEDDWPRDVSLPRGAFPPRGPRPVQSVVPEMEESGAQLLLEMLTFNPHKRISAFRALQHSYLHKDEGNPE
CDK4/Cyclin D3 complex, sequence (P30281 whole entry partner, the tested form may be a part): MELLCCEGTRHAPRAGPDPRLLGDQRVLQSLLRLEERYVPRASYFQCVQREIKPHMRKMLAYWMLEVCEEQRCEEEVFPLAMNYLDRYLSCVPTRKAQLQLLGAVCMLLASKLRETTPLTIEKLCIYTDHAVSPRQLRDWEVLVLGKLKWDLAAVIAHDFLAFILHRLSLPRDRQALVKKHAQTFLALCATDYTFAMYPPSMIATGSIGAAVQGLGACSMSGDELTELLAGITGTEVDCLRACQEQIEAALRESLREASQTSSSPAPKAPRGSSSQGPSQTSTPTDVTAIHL

[4] = Human liver microsome (HLM) assay; type: in vitro ADME; conditions: human liver microsomes, 5 μM test compound
Summary of the method: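 Compound metabolism in human liver microsomes measured in triplicate. Samples at 0 and 2 h centrifuged at 14000 g for 10 min and analysed by LC-MS.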

[5] = target: T2, human CHK1 (FL-CHK1) (Homo sapiens, UniProt O14757); assay: CHK1 assay (coupled spectrophotometric, Syntide-2); type: biochemical; conditions: read-out: CHK-1 Ki
T2 construct: C-terminally His-tagged full-length human CHK1 (FL-CHK1); made in house; host or cells: baculovirus/insect cell system
T2 sequence (O14757 1-476): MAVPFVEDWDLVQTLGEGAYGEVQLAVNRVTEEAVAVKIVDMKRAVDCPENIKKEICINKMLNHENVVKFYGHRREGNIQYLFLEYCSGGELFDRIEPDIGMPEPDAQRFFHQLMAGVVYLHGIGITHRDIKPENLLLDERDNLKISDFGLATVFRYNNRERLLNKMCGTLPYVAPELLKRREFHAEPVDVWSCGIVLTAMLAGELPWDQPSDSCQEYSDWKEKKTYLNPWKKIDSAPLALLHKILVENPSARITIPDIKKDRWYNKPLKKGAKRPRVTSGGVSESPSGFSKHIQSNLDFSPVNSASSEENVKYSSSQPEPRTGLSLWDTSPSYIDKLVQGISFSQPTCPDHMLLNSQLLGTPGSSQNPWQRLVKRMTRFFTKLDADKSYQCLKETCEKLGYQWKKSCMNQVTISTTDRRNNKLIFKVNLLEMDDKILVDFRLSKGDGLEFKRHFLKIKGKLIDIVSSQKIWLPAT
Summary of the method: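 Full-length C-terminally His-tagged human CHK1 expressed in baculovirus/insect cells, used at 10 nM with Syntide-2 substrate. ADP formation coupled via PK/LDH to NADH oxidation, followed as absorbance decrease at 340 nm. Ki from initial rates at varying compound concentrations.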

[6] = Mouse PK assay; type: in vivo; conditions: female, B6, plasma, oral
Method: Mouse PK Assay The pharmacolinetics (e.g., absorption and elimination) of drugs in mice were analyzed using the following experiment. […] This was administered orally (p.o.) and intraperitoneally (i.p.) at variable doses to two distinct groups (n=4) of B6 female mice. Blood samples were collected via an orbital bleed at time points: 0 hour (pre-dose), 0.5 h, 1.0 h, 2.0 h, and 4.0 h, and 7.0 h post dose. Plasma was obtained from each sample by centrifugation at 2500 rpm for 5 min. Test compound was extracted from the plasma by an organic protein precipitation method. For each time bleed 50 μL of plasma was combined with 1.0 mL of acetonitrile, vortexed for 2 min. and then spun at 4000 rpm for 15 min. to precipitate the protein and extract out the test compound. Next, the acetonitrile supernatant (the extract containing test compound) was poured into new test tubes and evaporated on a hot plate (25° C.) under a steam of N2 gas. […] Test-compound plasma concentrations (μg/mL) were determined by a comparison to standard curve (peak area vs. conc. μg/mL) using known concentrations of test compound extracted from plasma samples in the manner described above. […] The quantitated test samples were plotted for visual display using Kalidagraph software and their pharmacokinetic parameters were determined using WIN NONLIN software.

[7] = target: unphosphorylated VEGF-R2Δ50 (FLVK) (Homo sapiens, UniProt P35968, DEL940-989/E990V); assay: VEGF-R2 coupled spectrophotometric assay, unphosphorylated VEGF-R2Δ50 (FLVK)
unphosphorylated VEGF-R2Δ50 (FLVK), sequence (P35968 with tags, fused parts or gaps DEL940-989/E990V limits assumed): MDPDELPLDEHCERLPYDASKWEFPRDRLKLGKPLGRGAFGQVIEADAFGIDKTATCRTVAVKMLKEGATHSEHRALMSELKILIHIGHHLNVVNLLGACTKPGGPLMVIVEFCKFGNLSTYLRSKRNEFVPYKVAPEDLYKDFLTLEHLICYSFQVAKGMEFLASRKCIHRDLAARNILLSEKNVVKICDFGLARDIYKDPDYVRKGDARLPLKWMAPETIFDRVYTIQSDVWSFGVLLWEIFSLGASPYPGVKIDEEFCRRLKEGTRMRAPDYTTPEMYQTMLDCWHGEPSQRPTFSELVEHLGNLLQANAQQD

[8] = target: human FGF-R1 (Homo sapiens, UniProt P11362, C488A/C584S/L457V); assay: FGF-R spectrophotometric assay
human FGF-R1, sequence (P11362 456-766 L457V/C488A/C584S): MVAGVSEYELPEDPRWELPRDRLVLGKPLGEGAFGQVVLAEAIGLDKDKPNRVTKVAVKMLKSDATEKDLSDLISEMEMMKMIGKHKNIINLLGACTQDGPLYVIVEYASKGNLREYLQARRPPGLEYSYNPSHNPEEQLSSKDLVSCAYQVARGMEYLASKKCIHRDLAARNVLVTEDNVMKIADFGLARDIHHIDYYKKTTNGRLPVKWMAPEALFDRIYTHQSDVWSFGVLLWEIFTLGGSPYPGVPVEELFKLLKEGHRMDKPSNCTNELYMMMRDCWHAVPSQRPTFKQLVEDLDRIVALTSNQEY

[9] = Determination of inhibitor concentration in mouse plasma after intraperitoneal and oral dosing; type: in vivo
Summary of the method: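 Mice dosed intraperitoneally or orally; blood taken by ocular bleed at 0.5, 1 and 4 h and by intracardiac puncture at 7 h. Plasma extracted with ethyl acetate after internal standard and NaOH addition, analysed by HPLC or LC-MS against a mouse-plasma standard curve.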

[10] = target: CDK2/Cyclin A (Homo sapiens, UniProt P24941); assay: CDK2/Cyclin A assay ([32P]ATP, Rb fragment); type: biochemical; conditions: Table 1
[11] = Isomerization under assay conditions; type: physicochemical; conditions: Z-isomer
Method: Example 33(h) was prepared in the same reaction as Example 33(d). […] Found: C, (66.36), H, (4.08), N, (11.49), S, (6.55).

[12] = tested on: VEGF dependent retinal neovascularization; assay: In vivo assay of retinal vascular development in neonatal rat model of retinopathy of prematurity; conditions: ROP model; intravitreal; 10 mg/ml; vehicle PEG/water 70:30
Method: In Vivo Assay of Retinal Vascular Development in Neonatal Rat Model of Retinopathy of Prematurity A second model of VEGF dependent retinal neovascularization was employed to evaluate the activities of this series of compounds. […] This alternating cycle of hyperoxia followed by hypoxia is repeated 7 times after which the animals are removed to room air (P14). Compounds are administered via intravitreal injection upon removal to room air and the animals are sacrificed 6 days later (P20). The isolated retinas are then isolated, stained mounted and analyzed as detail above in the development model. The effectiveness was also graded as is described for the development model.

[13] = tested on: lung cancer cells (line MV522); assay: Cancer cell proliferation (MV522) assay; type: cell-based
Method: Cancer Cell Proliferation (MV522) Assay
The protocol for assessing cellular proliferation in cancer cells is similar to that used for assessments in HUVEC cells. Two thousand lung cancer cells (line MV522, acquired from American Tissue Cultural Collection) were seeded in growth media (RPMI1640 medium supplemented with 2 mM glutamine and 10% FBS). Cells are allowed to attach for 1 day prior to addition of test agents and/or vehicles. Cells are treated simultaneously with the same test agents used in the HUVEC assay. Cellular proliferation is quantified by MTT dye reduction assay 72 hours after exposure to test agents. The total length of the assay is 4 days vs. 5 for HUVEC cells because MV522 cells are not exposed to starvation medium.

[14] = target: CDK1 (Homo sapiens, UniProt P06493); assay: CDK1 inhibition; type: biochemical; conditions: Table 3
CDK1, sequence (P06493 whole entry, species assumed, the tested form may be a part): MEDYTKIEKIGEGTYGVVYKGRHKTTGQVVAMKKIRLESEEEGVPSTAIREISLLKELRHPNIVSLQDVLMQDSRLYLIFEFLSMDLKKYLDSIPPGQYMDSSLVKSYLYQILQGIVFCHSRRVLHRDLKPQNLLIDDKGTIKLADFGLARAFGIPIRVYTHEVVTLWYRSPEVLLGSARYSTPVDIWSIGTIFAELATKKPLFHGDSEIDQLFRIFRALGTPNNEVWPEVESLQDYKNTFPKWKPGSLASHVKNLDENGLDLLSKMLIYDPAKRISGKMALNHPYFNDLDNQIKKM
CDK1, sequence (P14635 whole entry partner, species assumed, the tested form may be a part): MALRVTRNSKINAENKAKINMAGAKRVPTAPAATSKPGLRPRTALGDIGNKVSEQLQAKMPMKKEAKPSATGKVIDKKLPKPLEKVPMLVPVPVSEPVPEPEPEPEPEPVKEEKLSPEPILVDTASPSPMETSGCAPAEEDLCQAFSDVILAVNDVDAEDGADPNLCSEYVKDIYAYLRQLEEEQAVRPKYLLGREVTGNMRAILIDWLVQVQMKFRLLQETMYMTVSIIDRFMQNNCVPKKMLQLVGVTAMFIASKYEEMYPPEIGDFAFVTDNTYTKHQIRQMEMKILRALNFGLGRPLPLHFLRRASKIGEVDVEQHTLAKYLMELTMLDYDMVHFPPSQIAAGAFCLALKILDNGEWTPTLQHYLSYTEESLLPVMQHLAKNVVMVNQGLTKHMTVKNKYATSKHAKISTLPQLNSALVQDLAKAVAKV

[15] = target: T3, phosphorylase kinase (truncated catalytic gamma subunit) (Oryctolagus cuniculus, UniProt P00518); assay: Phosphorylase kinase assay; type: biochemical; conditions: 10 μM of compound
T3 construct: (gamma subunit) of phosphorylase kinase (amino acids 1-298); made in house
T3 sequence (P00518 2-299 limits assumed): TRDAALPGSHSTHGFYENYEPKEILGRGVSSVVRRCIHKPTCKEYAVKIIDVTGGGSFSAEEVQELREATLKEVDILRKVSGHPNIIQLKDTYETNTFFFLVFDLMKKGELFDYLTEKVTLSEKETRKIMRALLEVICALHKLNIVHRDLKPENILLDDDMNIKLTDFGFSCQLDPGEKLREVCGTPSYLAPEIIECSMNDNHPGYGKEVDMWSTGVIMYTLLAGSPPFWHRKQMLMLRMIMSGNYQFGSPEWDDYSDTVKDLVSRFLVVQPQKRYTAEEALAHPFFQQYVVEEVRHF
Method: Phosphorylase Kinase Assay. In the assay, the purified catalytic subunit is used to phosphorylate phosphorylase b using radiolabled ATP. Briefly, 1.5 mg/ml of phosphorylase b is incubated with 10 nM phosphorylase kinase in 10 Mm MgCl2, 50 mM Hepes pH 7.4, at 37° C. […] The reaction was terminated and proteins were precipitated by the addition of TCA to 10% final concentration. […] The filter plate was then extensively washed with 20% TCA, and dried. Scintilation fluid was then added to the plate and incorporated radiolabel was counted on a Wallac microbeta counter.

[16] = IP, 50 mg/kg, vehicle PEG400:H2O pH 2.3 30:70
[17] = IP, 25 mg/kg, vehicle PEG400:H2O pH 2.3 60:40
[18] = PO, 50 mg/kg, vehicle PEG400:H2O pH 2.3 60:40

phosphorylated VEGF-R2Δ50 (FLVK-P), sequence (P35968 with tags, fused parts or gaps DEL940-989/E990V limits assumed): as the sequence (P35968 with tags, fused parts or gaps DEL940-989/E990V limits assumed) above

Work on COc1cc(-c2ccc3c(/C=C/c4ccc(OC)c(OC)c4)n[nH]c3c2)ccc1O [Example 1(a), 3-[E-2-(3,4-Dimethoxy-phenyl)vinyl]-6-(3-methoxy-4-hydroxy-phenyl)-1H-indazole] yielded a Ki [1] of 2 nM, a Ki ([2]; read-out: Lck-P Ki) of 88 nM and a Ki [3] of 13 nM. The “% remain (HLM, 2 h)” value [4] was 98%, the Ki ([5]; Table 1) was 5.2 nM and the AUC [6] was 330 ng·h/mL. For the same compound, the Ki ([7]; FLVK Ki, Table 1) was 0.3 nM, the Ki [8] was 27 nM and the AUClast [9, 16] was 691 ng·h/mL. The Cmax [9, 16] was 283 ng/mL, the “plasma half-life (T1/2)” value [9, 16] was 2.4 h and the Ki [10] was 19 nM.

In the case of O=C(Nc1cccc(Cl)c1)c1ccccc1Sc1ccc2c(/C=C\c3ccccn3)n[nH]c2c1 [Example 33(h), 6-[2-(3-Chlorophenylcarbamoyl)phenylsulfanyl]-3-Z-[2-(pyridin-2-yl)ethenyl]-1H-indazole], the “Isomerization under assay conditions” value [11] is reported as “found to isomerize to Example 33(d) under assay conditions”.

With O=C(Nc1cccc(C(=O)c2ccc3c(/C=N/n4cccc4)n[nH]c3c2)c1)c1ccccc1 [Example 45(b), 6-(3-Benzamidobenzoyl)-3-E-[N-(pyrrol-1-yl)iminomethyl]-1H-indazole] the inhibition at 1 µM ([2]; compound concentration 1 μM, read-out: Lck-P % inhibition) was 86%, the “Initial Evaluation” value [12] was “++ (two pluses being judged to be approximately 25-75% regression)” and the IC50 [13] was 4400 nM. It also gave an inhibition at 0.05 µM ([7]; read-out: FLVK % inhibition) of 99%, an inhibition at 1 µM ([8]; read-out: FGF-P % inhibition, Table 1, compound concentration 1 μM) of 79% and an AUClast [9, 17] of 11361 ng·h/mL. For the same compound, the “plasma half-life (T1/2)” value [9, 17] was 2.0 h, the AUClast [9, 18] was 1636 ng·h/mL and the “plasma half-life (T1/2)” value [9, 18] was 3.0 h.

In the case of C(=C\c1n[nH]c2cc(-c3ccnc4[nH]ccc34)ccc12)/c1ccccc1 [Example 52(b), 6-(7-Azaindol-4-yl)-3-E-styryl-1H-indazole], the Ki [14] is reported as 41 nM, the Ki ([5]; Table 3) is reported as 80 nM and the inhibition at 1 µM ([7]; read-out: FLVK % inhibition) is reported as 94%. The inhibition at 10 µM [15] was 92%.
